Data as given in paper PMC5749684, “Tetrahydrocarbazoles are a novel class of potent P-type ATPase inhibitors with antifungal activity” (PLoS ONE, 2018).
≈ marks a conversion by molar mass, not a printed value. Where “and” joins values, the source holds several entries; their conditions need not be identical. Equal values may be shown once. Entries after “also recorded” stand apart in the source; their conditions may differ.

Experiments:
[1] = biological target: T1, Saccharomyces cerevisiae Pma1 (Saccharomyces cerevisiae, UniProt P05030); test: ATP hydrolysis inhibition, S. cerevisiae Pma1; assay type: biochemical; details: for Pma1 inhibition (in words): Pma1 species not specified; for Selectivity among P-type ATPases (in words): Pma1 versus SERCA and Na+,K+-ATPase
T1 construct: containing the full-length cDNA of the S. cerevisiae plasma membrane H^+-ATPase isoform PMA1; made in house; host or cells: Saccharomyces cerevisiae RS72
Description: The compound libraries were purchased from Enamine Ltd, Ukraine and Chembridge Corp, USA. Library screening was performed in 96 well plates format and each compound was screened in the ATP hydrolysis assay at a final concentration of 20 μM. DMSO was used to determine the maximal ATPase activity and a blank with ATP in absence of Pma1 protein was used to determine the level of spontaneous ATP hydrolysis and used to determine background level. The percentage of compound inhibition was evaluated by subtracting the blank from each data point and normalizing to maximal ATP hydrolysis activity. […] Pma1 inhibitory hit compounds (IC50 <20 μM) with antifungal activity on both S. cerevisiae and C. albicans (MIC <100 μM) were re-purchased and re-evaluated to confirm the potency and identity of the compound.
Plasma membranes containing Pma1 were isolated from Saccharomyces cerevisiae RS72 cells containing the full-length cDNA of the S. cerevisiae plasma membrane H^+-ATPase isoform PMA1 under control of the PMA1 promoter as described.
(§1) ATPase activity was determined by measuring the amount of liberated phosphate from ATP hydrolysis. The ATPase assay was performed in 96 well plates in a final reaction volume of 60 μL. 0.1–0.2 μg/well of DOC extracted SERCA membrane or the Na^+,K^+-ATPase was used, while 1–2.5 μg/well was used of the Pma1 membrane preparation. Reactions, including protein membrane preparation and various concentrations of exogenously added compounds, were conducted in the following buffers; Pma1 buffer: 17.5 mM MOPS-NaOH pH 7, 7 mM MgSO4, 44 mM KNO3 (vacuolar ATPase inhibitor), 22 mM NaN3 (mitochondrial ATPase inhibitor), 0.22 mM Na2MoO4 (acid phosphatase inhibitor); SERCA buffer: 9 mM MOPS-NaOH pH 7, 2.7 mM MgCl2, 0.1 mM CaCl2 and 72 mM KCl. Na^+,K^+-ATPase buffer: 30 mM MOPS-NaOH pH 7, 40 mM NaCl, 4 mM MgCl2 and 20 mM KCl. Reactions were initiated by the addition of Na-ATP to a final concentration of 2.5 mM (Pma1 and Na^+,K^+-ATPase) or 5 mM (SERCA), followed by 30 minutes incubation at 30°C. […] Absorption was measured at 860 nm after additional 30 minutes incubation at RT.

[2] = biological target: T2, Candida albicans Pma1 (Candida albicans, UniProt P28877); test: ATP hydrolysis inhibition, C. albicans Pma1; assay type: biochemical; details: racemic compounds, n = 3
T2 construct: endogenous in cells
Description: Candida albicans microsomes were prepared from 100 mL overnight culture in YPD (10 g/L yeast extract (BD, Sparks, MD), 20 g/L Bacto peptone (BD, Sparks, MD), 20 g/L D-(+)-glucose), transferred to 1 L YPD and grown at RT, 150 rpm, for 7 h. Cells were harvested and washed in deionized water followed by centrifugation at 3360 x g. The cells were glucose-activated by the addition of 10% (w/v) D-(+)-glucose for 10 minutes while shaking. This suspension was then centrifuged at 3,360 x g for 3 minutes and 60–80 g of cells (wet weight) were resuspended in homogenization buffer (50 g/L glucose, 28.3% (v/v) glycerol, 100 mM Tris-HCl pH 7.25, 10 mM EDTA pH 8.0, 50 mM KCl, 1 mM DTT, 200 μM PMSF, 2 μg/ml Pepstatin A), and disrupted with 165 g glassbeads (500 μm diameter) in a BeadBeater (Biospec Product, Bartlesville, OK). The disrupted cells were centrifuged at 4°C for 5 and 15 minutes at 1,400 x g and 12,000 x g, respectively. The supernatant was collected and centrifuged at 251,000 x g for 1 h, and the membrane fraction was collected and homogenized in GTEK20 buffer (20% (v/v) glycerol, 10 mM Tris-HCl pH 7.25, 25 mM KCl, 0.5 mM EDTA pH 8.0, 1 mM DTT, 0.2 mM PMSF, 2 μg/mL Pepstatin A).
as §1

[3] = system: Candida glabrata Cg003; test: microbe, parasite or virus in culture; assay type: cell-based; details: for MIC: Nakaseomyces glabratus, CG003, 24 h, read-out: Growth inhibition MIC Candida glabrata Cg003
Description: Fungal isolates were purchased from American Type Culture Collection, except for C. glabrata strain Cg003, which was kindly provided by Julius Subik, Comenius University in Bratislava, Slovak Republic. […] Saccharomyces cerevisiae (ATCC 9763), Candida albicans (ATCC 90028), Candida albicans (SC5314), Candida glabrata (ATCC 90030), Candida glabrata (Cg003) and Candida krusei (ATCC 6258) were grown in Sabouraud broth (40 g/L D-glucose, 10 g/L peptone, pH 5.6) or YPD (10 g/L yeast extract, 20 g/L Bacto-peptone, 20 g/L glucose) medium to mid log phase, aliquoted into 20% (v/v) glycerol and cryopreserved as stocks at -80°C. For each growth assay, cells from these stocks were diluted in sterile water to OD600 = 0.025, which corresponds to a final starting inoculum of 0.5–2.5 x 10^5 CFU/mL. Growth assays were carried out by pipetting 3 μL compound dissolved in DMSO, 100 μL cell suspension and 97 μL 2 x RPMI media (20.8 g/L RPMI-1640 (Sigma-Aldrich catalog number R6504) 330 mM MOPS, 36 g/L glucose) into a microtiter plate and incubating for 24 h at 34°C, followed by OD measurement at 490 nm.

[4] = system: S. cerevisiae cells; test: Membrane potential study (DiBAC4(3)); assay type: cell-based, Saccharomyces cerevisiae; details: 10 μM, 30 minutes exposure, compared to DMSO
Description: S. cerevisiae cells were grown to mid-log phase, pelleted at 2,000 x g for 2 minutes and washed twice in buffer A (100 mM MOPS and 1 mM KCl adjusted with Trizma base to pH 7.0). Cells were then resuspended in buffer A to an OD600 of 0.2. For each well 50 μL of buffer A with 3.3 μg/mL propidium iodide (PI) (Thermo Fisher Scientific, catalog number P1304MP) and 1 μg/mL DiBAC4(3) (Sigma-Aldrich, catalog number D8189)) was mixed with 50 μL S. cerevisiae cell suspension and transferred to a 96 well plate containing 1 μL of inhibitor (in DMSO). A lysis control was performed with Reagent Y100 (ChemoMetec). Five thousand cells were measured per experiment with an exposure time of 1000 ms using a NucleoCounter NC-3000 (ChemoMetec). Dark field was used as the masking channel to select the yeast cells, and the DiBAC4(3) ([…]) and PI (ex 630 nm, em 740/60 nm) channels were used to measure the membrane potential and membrane integrity, respectively. Only cells with a pixel size of 10–40 were included in the analysis, to avoid analysis of non-cell artifacts.

[5] = ATP hydrolysis IC50 Saccharomyces cerevisiae Pma1, racemic compounds, n = 3
[6] = Pma1 IC50, Pma1 species not specified

T2 sequence (P28877 whole entry): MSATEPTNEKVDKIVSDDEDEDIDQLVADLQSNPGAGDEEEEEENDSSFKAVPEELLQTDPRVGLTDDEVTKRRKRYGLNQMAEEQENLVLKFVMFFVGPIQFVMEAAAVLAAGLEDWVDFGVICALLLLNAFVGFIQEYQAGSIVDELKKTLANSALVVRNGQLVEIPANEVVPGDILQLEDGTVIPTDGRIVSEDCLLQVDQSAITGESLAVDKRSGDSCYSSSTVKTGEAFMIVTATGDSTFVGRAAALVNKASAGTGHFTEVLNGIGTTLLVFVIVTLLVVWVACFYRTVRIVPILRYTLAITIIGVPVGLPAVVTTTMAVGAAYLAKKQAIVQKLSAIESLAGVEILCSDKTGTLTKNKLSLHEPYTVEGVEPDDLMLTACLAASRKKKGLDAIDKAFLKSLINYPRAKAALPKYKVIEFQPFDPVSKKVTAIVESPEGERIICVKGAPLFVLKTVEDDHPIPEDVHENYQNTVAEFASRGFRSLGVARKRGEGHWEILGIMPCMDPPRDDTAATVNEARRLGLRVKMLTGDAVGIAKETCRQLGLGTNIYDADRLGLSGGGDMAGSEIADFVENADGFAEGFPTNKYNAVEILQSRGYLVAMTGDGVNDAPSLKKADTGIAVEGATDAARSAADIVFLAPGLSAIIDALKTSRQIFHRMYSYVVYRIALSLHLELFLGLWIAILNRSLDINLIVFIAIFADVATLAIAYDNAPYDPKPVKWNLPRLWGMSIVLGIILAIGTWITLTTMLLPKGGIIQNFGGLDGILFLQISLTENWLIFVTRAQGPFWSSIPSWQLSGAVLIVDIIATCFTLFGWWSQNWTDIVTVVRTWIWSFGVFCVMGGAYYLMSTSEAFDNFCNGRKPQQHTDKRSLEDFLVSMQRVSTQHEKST
T1 sequence (P05030 whole entry, canonical isoform): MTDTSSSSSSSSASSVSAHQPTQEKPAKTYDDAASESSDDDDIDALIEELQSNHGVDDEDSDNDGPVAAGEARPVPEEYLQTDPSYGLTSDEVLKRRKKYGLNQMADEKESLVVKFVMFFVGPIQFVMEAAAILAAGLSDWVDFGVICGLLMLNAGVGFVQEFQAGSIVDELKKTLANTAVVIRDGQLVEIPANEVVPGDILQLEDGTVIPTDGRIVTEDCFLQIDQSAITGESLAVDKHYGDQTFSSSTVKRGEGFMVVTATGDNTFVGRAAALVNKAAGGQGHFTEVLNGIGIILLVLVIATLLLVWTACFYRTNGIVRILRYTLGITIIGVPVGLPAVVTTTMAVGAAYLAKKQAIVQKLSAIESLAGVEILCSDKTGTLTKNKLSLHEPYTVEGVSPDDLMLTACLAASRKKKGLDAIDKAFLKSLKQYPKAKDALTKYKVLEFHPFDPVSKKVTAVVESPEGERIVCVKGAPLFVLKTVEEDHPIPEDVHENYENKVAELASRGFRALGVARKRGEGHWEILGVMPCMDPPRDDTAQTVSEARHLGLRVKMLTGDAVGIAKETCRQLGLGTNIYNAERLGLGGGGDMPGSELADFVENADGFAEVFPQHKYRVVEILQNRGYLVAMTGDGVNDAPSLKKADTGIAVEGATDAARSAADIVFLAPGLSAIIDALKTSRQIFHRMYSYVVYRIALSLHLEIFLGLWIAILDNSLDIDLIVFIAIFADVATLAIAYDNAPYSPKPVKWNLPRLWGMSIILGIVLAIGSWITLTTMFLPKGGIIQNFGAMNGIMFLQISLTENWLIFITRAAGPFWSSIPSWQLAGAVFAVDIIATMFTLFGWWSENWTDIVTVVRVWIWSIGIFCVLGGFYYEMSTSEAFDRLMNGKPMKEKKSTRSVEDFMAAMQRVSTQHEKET

Row | SMILES | IC50 [1, 5] | Pma1 inhibition (in words) [1] | IC50 [2] | MIC [3] | DiBAC4(3) fluorescence signal, membrane depolarization (in words) [4] | Selectivity among P-type ATPases (in words) [1] | IC50 [1, 6] | Antifungal activity against C. glabrata strain Cg003 (in words) ([3]; strain overexpresses efflux pumps Cdr1p and Cdr2p)
1 | NC1CCCc2c1[nH]c1cc(OC(F)(F)F)ccc21 (centres unmarked) [Compound 4] | 75 ± 3.2 µM | weak inhibitors of Pma1 | 46 ± 14.5 µM | 75 µM (≈ 20.3 µg/mL) | No significant differences |  |  | 
2 | CN1CCC(NC2CCCc3c2[nH]c2cc(OC(F)(F)F)ccc32)CC1 (centres unmarked) [Compound 5] | 85.9 ± 10.3 µM | weak inhibitors of Pma1 | 130 ± 32.2 µM | > 75 µM | No significant differences |  |  | 
3 | FC(F)(F)Oc1ccc2c3c([nH]c2c1)C(NCc1ccc(Cl)cc1)CCC3 (centres unmarked) [Compound 6] | 2.79 ± 0.36 µM |  | 3.89 ± 1.71 µM | > 75 µM |  | more potent in inhibiting SERCA and the Na^+,K^+-ATPase than Pma1 |  | 
4 | FC(F)(F)Oc1ccc2c3c([nH]c2c1)C(NCc1ccc(Br)cc1)CCC3 (centres unmarked) [Compound 7] | 2.43 ± 0.39 µM |  | 2.47 ± 0.26 µM | > 75 µM |  | more potent in inhibiting SERCA and the Na^+,K^+-ATPase than Pma1 |  | 
5 | FC(F)(F)Oc1ccc2c3c([nH]c2c1)C(NCCOc1ccc(Cl)cc1)CCC3 (centres unmarked) [Compound 8] | 3.57 ± 1.81 µM |  | 3.77 ± 1.04 µM | > 75 µM |  | more potent in inhibiting SERCA and the Na^+,K^+-ATPase than Pma1 |  | 
6 | FC(F)(F)Oc1ccc2[nH]c3c(c2c1)CCCC3NCc1ccc(-c2ccccn2)cc1 (centres unmarked) [Compound 9] | 4.73 ± 2.23 µM |  | 5.56 ± 1.55 µM | 23.7 µM (≈ 10.4 µg/mL) |  |  | 5 to 7 µM | exhibited antifungal activity
7 | Clc1ccc2[nH]c3c(c2c1)CCCC3NCc1ccc(-c2ccccc2)cc1 (centres unmarked) [Compound 10] | 7 µM and 6.69 µM |  | 9.7 ± 2.15 µM | > 75 µM | slight increase |  | 5 to 7 µM | 
8 | Cn1c2c(c3cc(Cl)ccc31)CCCC2NCc1ccc(-c2ccccc2)cc1 (centres unmarked) [Compound 11] | > 20 µM | no activity against Pma1; also recorded: no inhibitory effect on Pma1 | > 20 µM | > 20 µM |  |  |  | 
9 | CN(Cc1ccc(-c2ccccc2)cc1)C1CCCc2c1[nH]c1ccc(Cl)cc21 (centres unmarked) [Compound 12] | > 20 µM | no activity against Pma1; also recorded: no inhibitory effect on Pma1 | > 20 µM | > 20 µM |  | weakly selective for Na^+,K^+-ATPase only |  | 
